Measurements taken from patent publication US20130064812A1, “COMBINATION THERAPIES FOR HEMATOLOGIC MALIGNANCIES” (Gilead Calistoga LLC, priority 2011, published 2013).
“And” between values parts separate entries of the source, which are not always exact repeats. Equal values may be shown once. “Also recorded” adds a separate entry of the source. Read-outs that look alike come from different tables or passages of the source.

Key:
PIP5Kα = PIP5Kα (Homo sapiens, UniProt Q99755); assay: InvitroGen Adapta kinase assay, PIP5Kα; format: biochemical; conditions: Other Phosphoinositide kinases; head prints no unit
[1] = system: patient chronic lymphocytic leukemia (CLL) cells; assay: Apoptosis of patient CLL cells (Annexin V-FITC/PI); format: cell-based, human
Procedure: Peripheral blood was obtained from patients with B-CLL through the CLL Research Consortium from Ohio State University. Primary CD19-positive cells were isolated using Rosette-Sep (StemCell Technologies). Cells were maintained in RPMI 1640 (Invitrogen) supplemented with 10% heat-inactivated fetal bovine serum, 2 mmol/L L-glutamine, and penicillin (100 units/mL)/streptomycin (100 μg/mL; Invitrogen) at 37° C., 5% CO2, and high humidity. […] After incubation for 10 minutes at room temperature in a light-protected area, the specimens were quantified by flow cytometry on a FACScan™ (Becton Dickinson).

phospho-Akt(Ser473) = assay: Constitutive Akt phosphorylation in leukemia and lymphoma cell lines (immunoblot); format: cell-based
Procedure: A large panel of leukemia and lymphoma cell lines was assessed for constitutive Akt phosphorylation. These cell lines represent B-lymphoma, T-lymphoma, ALL, Malignant histiocytosis, DLBCL and AML. […] Thereafter, cell were lysed, size-fractioned and immunoblotted with antibodies directed against phospho-Akt(Ser473).
The PI3K pathway is frequently deregulated in leukemia and lymphoma cell lines. […] In addition, PI3K pathway activation is dependent on p110δ.

[2] = human, in vivo
Procedure: This example provides data relating to the concentration of the compound of formula I in the blood of a healthy human subject on day 7. The concentration was monitored over a period of 12 hours, after oral administration of 50, 100, or 200 mg BID of the compound of formula I on day 7 of the study. FIG. 11 follows the plasma concentration of the drug over a period of 12 hours from administration.
In addition, single dose studies wherein 17-400 mg of the compound of formula I was administered in healthy volunteers was carried out.
Table 1, below, provides an overview of the subjects in the study, wherein either a singe dose (SD) or multiple dose (MD) of the compound of formula I is administered to a subject at varying amounts. The “n” values refer to the number of subjects in each group.

CLL = assay: ALC and lymphadenopathy in a patient with CLL; format: in vivo, human; conditions: 1 cycle (28 days) oral
Procedure: This example provides data relating to the concentration of absolute lymphocyte count (ALC) in the blood of a patient with CLL after 1 cycle (28 days) of treatment with oral administration of the compound of formula I. The blood ALC concentration was measured over a period of 4 weeks after completion of one cycle of treatment. A 55% decrease in lymphocytosis and a 38% decrease in lymphadenopathy as a result of treatment were observed. A marked decrease in ALC concentration is observed between week 1 and week 2, FIG. 13.

leukemia cell lines = assay: cells; format: cell-based; conditions: for apoptosis in leukemia cell lines: 1 μM or 10 μM, 24 hrs; for cellular viability of leukemia cell lines: 24 hours
Procedure: Proliferation assays (AlamarBlue®) on ALL cell lines grown in the presence of 10% FBS serum and measurements were taken at 24 hrs. Proliferation was measured in triplicate wells in 96-well plates.
The percentage of apoptotic cells was determined by Annexin V-FITC/7AAD staining.

AKT and ERK pathways = assay: AKT and ERK pathway phosphorylation in MM cells (immunoblot); format: cell-based, human
Source text: Whole-cell lysates were subjected to sodium dodecyl sulfate-polyacrylamide gel electrophoresis (SDS-PAGE) separation, transferred to Pure Nitrocellulose membranes (Bio-Rad Laboratories, Hercules, Calif.), and immunoblotted with anti-AKT, phospho(p)-AKT (Ser473, Thr 308), ERK1/2, P-ERK1/2, P-PDK1, STAT, P-STAT, P-FKRHL, P-70S6K, LC3, and PI3K/p110α Abs (Cell Signaling Danvers, Mass.); anti-p110β, PI3K/p110δ, Glyceraldehyde 3-phosphate dehydrogenase (GAPDH), α-tubulin, and actin Abs (Santa Cruz Biotechnology, CA); and anti-p110γ Ab (Alexis, San Diego, Calif.): and anti-LC3 Ab (Abgent, San Diego, Calif.).
Actin Ab was used as a loading control. […] Whole cell lysates were subjected to immunoblotting using AKT, P-AKT (Ser473 and Thr308), ERK1/2, P-ERK1/2, P-PDK1, and P-FKRHL antibodies. α-tubulin is used as a loading control.

[3] = system: relapsed or refractory indolent B-cell NHL and CLL; assay: Clinical study, combination with rituximab or bendamustine, 20 patients (Example 39); conditions: human, in vivo
Procedure: 20 patients were enrolled, including 12 with iNHL and 8 with CLL. All patients received the compound of formula I, either 100 mg orally twice per day (BID) or 150 mg orally twice per day (BID) for as long as the patient was benefiting. Patients also received either rituximab 375 mg/m^2 administered weekly for 8 weeks, starting on Day 1 of Cycle 1, or bendamustine 90 mg/m^2 administered on Days 1 and 2 of each cycle for 6 cycles. Tumor response was evaluated according to standard criteria.

CLL patients = assay: Samples from CLL patients undergoing treatment (phospho-flow, plasma cytokines); format: in vivo, human
PI3K-δ = assay: PI3K ELISA assay on CLL cell lysates with lenalidomide; format: cell-based, human; conditions: 0.5 μM lenalidomide; 1 or 10 μM compound added to lysate; N=9
Procedure: PI3K assay was preformed on whole cell lysates from CLL cells. The ELISA assay was performed according to the manufacture's instructions (Echelon Biosciences, Salt Lake City, Utah).
To first confirm the specificity of PI3-kinase activation, the direct increase in the enzymatic activity of PI3K following treatment with lenalidomide was determined. […] Results were calculated relative to μg of protein. Signaling with lenalidomide through the PI3K pathway can occur through four catalytic isoforms: p110α, p110β, p110γ, and p110δ.

Chain of PIP5Kα (Q99755 whole entry): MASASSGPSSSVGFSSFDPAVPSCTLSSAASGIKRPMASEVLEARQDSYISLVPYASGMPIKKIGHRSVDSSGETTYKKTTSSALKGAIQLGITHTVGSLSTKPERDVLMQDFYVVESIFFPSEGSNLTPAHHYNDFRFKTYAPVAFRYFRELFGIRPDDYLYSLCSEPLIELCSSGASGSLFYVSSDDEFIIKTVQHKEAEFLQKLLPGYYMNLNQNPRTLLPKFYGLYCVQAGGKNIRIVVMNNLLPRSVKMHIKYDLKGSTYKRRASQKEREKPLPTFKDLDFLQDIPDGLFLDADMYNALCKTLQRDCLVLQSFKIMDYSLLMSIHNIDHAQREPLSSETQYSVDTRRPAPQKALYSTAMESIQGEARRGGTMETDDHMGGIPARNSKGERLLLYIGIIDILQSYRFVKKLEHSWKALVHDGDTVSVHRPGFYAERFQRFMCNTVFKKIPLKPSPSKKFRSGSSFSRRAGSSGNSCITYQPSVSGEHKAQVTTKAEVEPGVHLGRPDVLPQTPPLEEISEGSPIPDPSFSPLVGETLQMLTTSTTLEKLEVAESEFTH

For CC[C@H](Nc1ncnc2[nH]cnc12)c1nc2cccc(F)c2c(=O)n1-c1ccccc1 [Compound I, 5-fluoro-3-phenyl-2-[1-(9H-purin-6-ylamino)-propyl]-3H-quinazolin-4-one], the IC50 (PIP5Kα) was > 1000 nM, the “apoptosis of CLL cells from poor prognosis patients” value [1] was “induced apoptosis was seen” and the “apoptosis of CLL cells from refractory/relapsed patients” value [1] was “induced apoptosis was also seen to be effective”. The “apoptosis of CLL patient cells” value ([1]; 96 hours) was “dose-dependent cytotoxicity; also recorded: results in apoptosis and the result appears to be dose-dependent”, the “apoptosis of CLL cells from poor prognosis patients” value ([1]; listed as compound I) was “increased apoptosis” and the “apoptosis of CLL cells from refractory/relapsed patients” value ([1]; listed as compound of formula I) was “increased apoptosis”. For the same compound, the “cell lines in which constitutive AKT phosphorylation was inhibited” value (phospho-Akt(Ser473); 10 μM, 2 hrs, B-cell and T-cell lymphomas included) was 11 out of 11, the “constitutive Akt(Ser473) phosphorylation” value (phospho-Akt(Ser473); 2 hours treatment) was “inhibits Akt phosphorylation; also recorded: Reduction in Akt(Ser473) was achieved for all cell lines” and the “cell lines in which constitutive AKT phosphorylation was inhibited” value (phospho-Akt(Ser473); cell lines with constitutive p-AKT) was 13 of 13 and 13 out of 13. For the same compound, the “concentration level versus PI3Kδ EC50 in basophil” value [2] was “exceeds the PI3Kδ EC50 concentration in basophil for at least 12 hours”, the “tolerability in normal healthy volunteers” value [2] was “well tolerated at doses above commonly used therapeutic doses” and the decrease in lymphadenopathy (CLL) was 38%. The decrease in lymphocytosis (CLL) was 55%, the “apoptosis in leukemia cell lines” value (leukemia cell lines) was “increase in apoptosis in the treated cells” and the “apoptosis in leukemia cell lines” value (leukemia cell lines; listed as compound I) was “induces apoptosis in leukemia cell lines”. For the same compound, the cytotoxicity at 10 µM (leukemia cell lines; 24 h, read-out: reduction of viability) was 40 to 50%, the “cellular viability of leukemia cell lines” value (leukemia cell lines) was “strongly affected by 5-10 micromolar concentrations” and the “cellular viability of leukemia cell lines” value (leukemia cell lines; listed as compound I) was “reduces cellular viability in a dose dependent manner”. For the same compound, the “phosphorylation of PDK-1 and FKHRL” value (AKT and ERK pathways; INA-6 and LB, 0-6 hours) was “significantly inhibited phosphorylation of upstream PDK-1 and downstream FKHRL”, the “phosphorylation of AKT or ERK, MM.1S cells” value (AKT and ERK pathways; low expression of P110δ, 0-5.0 μM, 6 hours) was “did not affect phosphorylation of AKT or ERK” and the “phosphorylation of AKT and ERK1/2, INA-6 cells” value (AKT and ERK pathways; p110δ positive, 12 h) was “significantly blocked phosphorylation of AKT and ERK1/2”. For the same compound, the dose-limiting toxicities [3] was “No dose-limiting toxicities related to the compound of formula I were observed”, the “mean plasma level of CCL3” value (CLL patients; Day28+, baseline 186 pg/mL, 14 CLL patients) was 29 pg/mL and the “mean plasma level of CXCL13” value (CLL patients; Day28+, baseline 316 pg/mL, 14 CLL patients) was 40 pg/mL. For the same compound, the “mean plasma level of TNFα” value (CLL patients; Day28+, baseline 104, 14 CLL patients) was 29 pg/mL, the “mean plasma level of CCL4” value (CLL patients; Day28+, baseline 303, 14 CLL patients) was 70 pg/mL and the “mean plasma level of CCL22” value (CLL patients; Day28+, baseline 1067, 14 CLL patients) was 533 pg/mL. The “down-regulation of pAkt(T308) in peripheral CLL cells” value (CLL patients; patients on treatment, n=12) was > 90%, the “PI3K enzymatic activity after lenalidomide” value (PI3K-δ) was “prevent the increase in PI3K enzymatic activity” and the “cytotoxicity against p110δ-positive MM cells” value (MM cell lines) was “induced cytotoxicity against LB and INA-6 mM cells (p110δ-positive) in a dose- and time-dependent fashion”. The “cytotoxicity in p110δ-negative cell lines” value (MM cell lines) was “minimal cytotoxicity”.
